Source: article PMC5373622, “Screening for AMPA receptor auxiliary subunit specific modulators” (PLoS ONE, 2017)

How the values were obtained:
[1] = biological target: GluA2flip(R)-stargazin (A2R-stg TetON HEK293 cells) (Homo sapiens, UniProt P42262, Q607R); assay: Voltage-sensitive dye (VSD) assay (primary screen, counter-screen, CRC) on A2R-stg cells; details: for concentration at which PAM/NAM activity is evident in raw VSD traces, A2R-stg: raw VSD data
Method: Cell lines used in the VSD assays were TetON HEK293 cells. […] We used GluA2flip(R) TetON HEK cell clone #4 that doxycycline (DOX) dependently expresses GluA2flip(R) (A2R). The A2R cells were used as the base cell line to derive cell lines that co-express auxiliary subunits.
(§3) Greiner 384-pp round-bottom plates containing glutamate for the second add were dispensed by hand using a multi-channel pipet at 5X final concentration. A2R-stg cells were plated in 384-well BD PureCoat amine-coated plates (Corning Life Sciences) at 16k cells/well in DMEM medium supplemented with 10% heat-inactivated FBS and 100U/mL PenStrep antibiotic. […] Cells were incubated overnight (O/N) and washed 4 times in HBSS containing 20 mM HEPES, pH 7.4, on an ELX405CW liquid aspirator and dispenser (BioTek). Buffer was left in the wells and an equal amount of 2X FLIPR dye solution was added and incubated on the cells at room temperature for 45 min. Fluorescence signal was collected at 1 Hz using Ex. 480±20 nm/Em. 540±40 nm on a Hamamatsu Functional Drug Screening System 6000 (FDSS). Baseline signal was collected for 10 seconds followed by addition of 10 μl of 5X compound for a final concentration of 10 μM.
Hits were selected from this initial screen using 4 different criteria, which we termed CMPDslope, CMPDmaxmin, GLUslope, and GLUmaxmin. […] GLUslope is the fitted slope of the increase in fluorescence within 10 sec after adding glutamate. GLUmaxmin is the difference in the minimum and maximum value in fluorescence signal reached in the 100 sec window after adding glutamate. Compounds were classified as hits if they differed by 3 standard deviations of the mean for each criterion. Tier 1 hits were classified as those that hit in the GLUslope, GLUmaxmin, and CMPDmaxmin windows. Tier 2 hits were classified as compounds that hit in the GLUslope window and either the GLUmaxmin or CMPDmaxmin window. Tier 3 hits were classified as those that hit in only the GLUslope or the GLUmaxmin window. Tier 4 hits were classified as compounds that hit only in the CMPD window, CMPDslope or CMPDmaxmin. Hit selection was further narrowed using the criterion that their signal must return to near baseline values before entering the glutamate add window.
VSD concentration response curves (CRCs): After the above counter-screens, compounds that remained positive were moved forward to collect complete CRCs for A2R-stg and A2R-C3 cell lines. This assay was carried out in the same way as the VSD screening assay except a 10-point concentration curve, from 40 μM to 10 nM, was plated in triplicate for each compound on a single 384-well plate. Data were summarized by plotting them as %max GLUslope against log [compound] that was fit to a four-parameter logistical model. %max GLUslope is defined as a normalized GLUslope expressed as a percentage of the mean maximum GLUslope, defined as 100, where background mean vehicle control (VHLslope) were subtracted from both values on a per plate basis. Thus, %max GLU slope = (GLUslope-mean VHLslope/mean maxGLUslope-mean VHLslope).

[2] = biological target: GluA2flip(Q)-GSG1L (A2Q-GSG cells) (Homo sapiens, UniProt P42262); assay: Calcium flux (Fluo-8) compound CRC assay on A2Q-GSG cells
GluA2flip(Q)-GSG1L (A2Q-GSG cells), sequence (P42262 25-883 isoform P42262-2 limits assumed): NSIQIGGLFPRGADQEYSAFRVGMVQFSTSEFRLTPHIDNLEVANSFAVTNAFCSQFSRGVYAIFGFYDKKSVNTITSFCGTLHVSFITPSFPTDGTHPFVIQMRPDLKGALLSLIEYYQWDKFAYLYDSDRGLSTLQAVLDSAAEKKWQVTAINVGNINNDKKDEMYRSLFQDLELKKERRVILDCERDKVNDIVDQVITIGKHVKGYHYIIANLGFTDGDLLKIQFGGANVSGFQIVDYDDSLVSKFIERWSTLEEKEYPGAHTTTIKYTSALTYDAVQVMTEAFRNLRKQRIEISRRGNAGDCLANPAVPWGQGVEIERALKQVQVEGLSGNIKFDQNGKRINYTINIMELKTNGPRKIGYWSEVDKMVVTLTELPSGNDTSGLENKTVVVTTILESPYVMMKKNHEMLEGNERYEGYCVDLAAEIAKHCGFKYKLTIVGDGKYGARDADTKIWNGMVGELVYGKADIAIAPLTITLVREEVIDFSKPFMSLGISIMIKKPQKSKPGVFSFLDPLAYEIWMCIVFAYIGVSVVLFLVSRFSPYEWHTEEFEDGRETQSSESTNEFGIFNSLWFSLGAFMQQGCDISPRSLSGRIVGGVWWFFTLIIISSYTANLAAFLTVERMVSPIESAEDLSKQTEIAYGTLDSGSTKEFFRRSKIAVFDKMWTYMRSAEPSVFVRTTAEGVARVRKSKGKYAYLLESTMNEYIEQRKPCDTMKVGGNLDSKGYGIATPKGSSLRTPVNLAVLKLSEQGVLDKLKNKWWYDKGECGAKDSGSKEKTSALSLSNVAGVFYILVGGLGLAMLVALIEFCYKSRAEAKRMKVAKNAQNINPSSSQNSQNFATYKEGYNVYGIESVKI
GluA2flip(Q)-GSG1L (A2Q-GSG cells), sequence (Q6UXU4 whole entry partner): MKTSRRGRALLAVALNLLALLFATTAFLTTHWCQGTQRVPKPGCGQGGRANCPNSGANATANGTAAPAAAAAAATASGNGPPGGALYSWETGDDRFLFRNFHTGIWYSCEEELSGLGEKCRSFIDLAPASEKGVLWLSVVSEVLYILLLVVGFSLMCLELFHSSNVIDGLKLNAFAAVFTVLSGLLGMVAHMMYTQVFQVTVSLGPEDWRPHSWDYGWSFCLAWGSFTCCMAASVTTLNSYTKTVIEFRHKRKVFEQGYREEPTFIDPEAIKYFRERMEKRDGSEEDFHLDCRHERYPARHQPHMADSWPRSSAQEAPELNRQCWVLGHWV
From the text: (§4) Cell lines used in the calcium flux assay were GluA2flip(Q)-FLAG + GSG1L-1D4 pTREt-Va dual expression in TetON HEK cell clone #20 (A2Q-GSG), GluA2flip(Q)-FLAG + CNIH3-1D4 pTREt-Va dual expression in TetON HEK cell clone #8 (A2Q-C3), GluA2flip(Q)-FLAG pTREt-Va in TetON HEK cell clone #5 (A2Q), and tethered GluA2flip(Q)-FLAG-stargazin [28] in pTREt-Va dual expression in TetON HEK cell clone #13 (A2Q-stg) (Summarized in Table 1).
(§5) Compounds that were selected as hits using the VSD assay were subsequently screened against the calcium permeable A2Q-stg and A2Q-C3 cell lines in a glutamate potency fold-shift assay using the calcium sensing dye Fluo-8 (AAT Bioquest cat #21080). This assay is used to measure how pretreatment with compounds shifts the EC50 of glutamate on A2Q-stg and A2Q-C3 cells. 30 μM of each compound was pre-incubated with the cells for 120 secs and then an 11-point glutamate CRC from 4 mM to 10 pM was applied to the cells for 180 sec. […] Greiner 384-pp round-bottom plates containing glutamate solutions were dispensed by hand using a multi-channel pipet at 5X final concentration. […] Sodium butyrate and DOX were added to the cells at 1 mM and 5 μg/mL, respectively, 24 hours before screening. A2Q-stg cells were induced with 10 μg/mL DOX. Cells were incubated O/N and washed 4 times in low calcium buffer on an ELX405CW liquid aspirator and dispenser (BioTek). Buffer was left in the wells and an equal amount of 4.6 μM (2X) Fluo-8 (AAT Bioquest cat #21080) solution with 2.5 mM probenecid was added and incubated on the cells at room temperature for 40 minutes. Probenecid was added to block dye efflux from the cells [29]. Dye was washed off with low calcium buffer using the ELX405CW (BioTek) and plates were immediately inserted into the FDSS (Hamamatsu). Fluorescence signal was collected at 1 Hz using Ex. 480±20 nm/Em. 540±40 nm. Baseline signal was collected for 10 seconds followed by addition of 20 μl of 2X compound for a final concentration of 30 μM. After 290 seconds, 10 μl of a 5X glutamate solution in high calcium buffer (10 mM HEPES, pH 7.4, 140 mM NaCl, 5 mM KCl, 1 mM MgCl2, 9 mM CaCl2, and 10 mM glucose) was added for 180 seconds.
(§6) These compound CRCs were applied to the cells 2 minutes before a 1mM glutamate stimulation. […] Normalized FDSS traces were curve fit to CRCs using the initial GLUslope (GLUslope1) in a 3–6 sec window after glutamate application. CRCs were also plotted for the traces’ area under the curve (AUC) in the GLUmaxmin window. […] Compounds were plotted as %max GLUslope against log [compound] and fit to a four-parameter logistical model as in the VSD.
(§7) Cells were loaded with Fluo-8 and excess dye was washed out. After 120 secs of pre-incubation with compound at concentrations ranging from 30 μM to 30 nM (Fig 4Bi), 1 mM glutamate was added (Fig 4Bii). In the calcium assay, 250 μM was used as the maxGLU dose because the GLUslope1 values decreased at higher concentrations of glutamate, making it the dose with the maximal GLUslope1 response. […] We measured GLUslope in three consecutive time windows, referred to as GLUslope1-3, because three phases were clearly detectable (Fig 4C). The final CRC curves were calculated from GLUslope1, obtained from the first 3–6 sec window.
(§8) The final compound CRC curves were calculated from GLUslope1. […] The AUC measures the accumulation of calcium instead of gating and sometimes produced a CRC fit when GLUslope1 could not derive an EC50 value.

GluA2flip(Q) (A2Q cells) = biological target: T1, GluA2flip(Q) (A2Q cells) (Homo sapiens, UniProt P42262); assay: Calcium flux (Fluo-8) compound CRC assay on A2Q cells; format: cell-based
T1 construct: FLAG (C); expressed in transfected cells
T1 sequence (P42262 25-883 isoform P42262-2 limits assumed): as the sequence (P42262 25-883 isoform P42262-2 limits assumed) above

[3] = biological target: T2, tethered GluA2flip(Q)-stargazin (A2Q-stg cells) (Rattus norvegicus, UniProt P19491); assay: Calcium flux (Fluo-8) compound CRC assay on A2Q-stg cells
T2 sequence (P19491 22-883): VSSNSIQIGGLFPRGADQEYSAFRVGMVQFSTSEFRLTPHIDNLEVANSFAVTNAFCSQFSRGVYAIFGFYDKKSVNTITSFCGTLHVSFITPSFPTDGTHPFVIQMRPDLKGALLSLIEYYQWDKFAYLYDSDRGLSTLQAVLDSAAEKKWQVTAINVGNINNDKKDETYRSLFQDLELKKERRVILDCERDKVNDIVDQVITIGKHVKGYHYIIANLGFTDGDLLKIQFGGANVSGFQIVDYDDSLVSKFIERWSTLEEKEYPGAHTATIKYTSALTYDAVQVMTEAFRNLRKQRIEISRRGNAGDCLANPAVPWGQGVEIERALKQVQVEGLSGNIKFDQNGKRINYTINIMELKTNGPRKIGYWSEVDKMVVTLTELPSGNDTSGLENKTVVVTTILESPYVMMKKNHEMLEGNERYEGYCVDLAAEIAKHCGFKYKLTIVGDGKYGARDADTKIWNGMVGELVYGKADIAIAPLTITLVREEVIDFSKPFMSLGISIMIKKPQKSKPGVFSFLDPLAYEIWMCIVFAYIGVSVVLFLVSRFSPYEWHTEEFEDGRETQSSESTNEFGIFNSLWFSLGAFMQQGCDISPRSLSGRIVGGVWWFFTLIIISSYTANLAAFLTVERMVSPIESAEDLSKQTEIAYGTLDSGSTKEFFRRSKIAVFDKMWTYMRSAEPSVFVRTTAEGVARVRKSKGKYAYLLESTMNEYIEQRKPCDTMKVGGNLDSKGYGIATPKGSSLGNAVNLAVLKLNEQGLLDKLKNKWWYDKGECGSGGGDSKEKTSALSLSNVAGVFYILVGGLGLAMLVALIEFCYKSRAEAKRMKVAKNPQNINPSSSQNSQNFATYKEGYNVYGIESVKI
T2 sequence (Q71RJ2 whole entry partner): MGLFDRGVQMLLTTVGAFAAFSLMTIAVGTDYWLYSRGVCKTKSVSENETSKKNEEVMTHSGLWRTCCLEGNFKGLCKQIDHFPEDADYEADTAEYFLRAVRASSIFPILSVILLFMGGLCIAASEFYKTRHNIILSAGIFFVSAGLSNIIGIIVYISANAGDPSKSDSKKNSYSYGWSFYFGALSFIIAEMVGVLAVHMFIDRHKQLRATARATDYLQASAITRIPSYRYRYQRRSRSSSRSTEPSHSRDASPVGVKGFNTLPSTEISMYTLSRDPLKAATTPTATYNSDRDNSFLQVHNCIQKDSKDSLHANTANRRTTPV
From the text: as §4, §5
These compound CRCs were applied to the cells 2 minutes before a 1mM glutamate stimulation. […] Normalized FDSS traces were curve fit to CRCs using the initial GLUslope (GLUslope1) in a 3–6 sec window after glutamate application. […]
Cells were loaded with Fluo-8 and excess dye was washed out. […] We measured GLUslope in three consecutive time windows, referred to as GLUslope1-3, because three phases were clearly detectable (Fig 4C). The final CRC curves were calculated from GLUslope1, obtained from the first 3–6 sec window.
The final compound CRC curves were calculated from GLUslope1. […]

[4] = biological target: GluA2flip(R)-CNIH3 (A2R-C3 TetON HEK293 cells) (Homo sapiens, UniProt P42262, Q607R); assay: VSD assay (counter-screen, CRC) on A2R-C3 cells; details: for concentration at which PAM/NAM activity is evident in raw VSD traces, A2R-C3: raw VSD data
GluA2flip(R)-CNIH3 (A2R-C3 TetON HEK293 cells), sequence (P42262 25-883 isoform P42262-2 Q607R limits assumed): as the sequence (P42262 25-883 isoform P42262-2 limits assumed) above, with Q583R counted along it
GluA2flip(R)-CNIH3 (A2R-C3 TetON HEK293 cells), sequence (Q8TBE1 whole entry partner): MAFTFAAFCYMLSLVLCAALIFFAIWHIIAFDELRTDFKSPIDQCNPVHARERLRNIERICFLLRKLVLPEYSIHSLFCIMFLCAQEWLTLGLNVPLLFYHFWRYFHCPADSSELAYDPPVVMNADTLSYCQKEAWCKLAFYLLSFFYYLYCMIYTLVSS
From the text: Cell lines used in the VSD assays were TetON HEK293 cells. This was the parental cell line for all stable cell lines created. We used GluA2flip(R) TetON HEK cell clone #4 that doxycycline (DOX) dependently expresses GluA2flip(R) (A2R). The A2R cells were used as the base cell line to derive cell lines that co-express auxiliary subunits.
as §3
This assay was carried out in the same way as the VSD screening assay except a 10-point concentration curve, from 40 μM to 10 nM, was plated in triplicate for each compound on a single 384-well plate. Data were summarized by plotting them as %max GLUslope against log [compound] that was fit to a four-parameter logistical model. %max GLUslope is defined as a normalized GLUslope expressed as a percentage of the mean maximum GLUslope, defined as 100, where background mean vehicle control (VHLslope) were subtracted from both values on a per plate basis. Thus, %max GLU slope = (GLUslope-mean VHLslope/mean maxGLUslope-mean VHLslope).

[5] = biological target: T3, GluA2flip(Q)-CNIH3 (A2Q-C3 cells) (Homo sapiens, UniProt P42262); assay: Calcium flux (Fluo-8) glutamate potency fold-shift assay on A2Q-C3 cells; format: cell-based; set-up: FLAG (C); expressed in transfected cells; details: 30 μM compound
T3 sequence (P42262 25-883 isoform P42262-2 limits assumed): as the sequence (P42262 25-883 isoform P42262-2 limits assumed) above
T3 sequence (Q8TBE1 whole entry partner): as the sequence (Q8TBE1 whole entry partner) above
Method: (§1) In this assay, a maximal dose (30 μM) of each compound (Fig 4Di) was incubated on cells for 120 secs and then a CRC for glutamate ranging from 4 mM to 10 pM was collected (Fig 4Dii). A rightward shift of the CRC for glutamate to a higher EC50 indicates NAM activity and a leftward shift to a lower EC50 indicates PAM activity (Fig 4E). […] These compounds, considered active, were then evaluated as a CRC of the compounds in the calcium flux assay.

[6] = biological target: T3, GluA2flip(Q)-CNIH3 (A2Q-C3 cells); assay: Calcium flux (Fluo-8) compound CRC assay on A2Q-C3 cells
From the text: as §4, §5, §6, §7, §8

[7] = biological target: T2, tethered GluA2flip(Q)-stargazin (A2Q-stg cells); assay: Calcium flux (Fluo-8) glutamate potency fold-shift assay on A2Q-stg cells; format: cell-based; details: 30 μM compound
Method: as §1

[8] = biological target: T4, GluA2flip(R) (A2R TetON HEK293 cells) (Homo sapiens, UniProt P42262, Q607R); assay: VSD counter-screen on A2R cells; format: cell-based; details: 10 μM compound
T4 construct: expressed in transfected cells
T4 sequence (P42262 25-883 isoform P42262-2 Q607R limits assumed): as the sequence (P42262 25-883 isoform P42262-2 limits assumed) above, with Q583R counted along it

[9] = biological target: T5, GluA2flip(R)-stargazin (A2R-stg cells) (Homo sapiens, UniProt P42262, Q607R); assay: Whole-cell electrophysiology with fast ligand application, A2R-stg cells; format: cell-based; details: 40 μM compound
T5 construct: expressed in transfected cells
T5 sequence (P42262 25-883 isoform P42262-2 Q607R limits assumed): as the sequence (P42262 25-883 isoform P42262-2 limits assumed) above, with Q583R counted along it
T5 sequence (Q9Y698 whole entry partner): as the sequence (Q71RJ2 whole entry partner) above, with V257I, D306E, S307N, A313S counted along it
Method: (§2) A2R-stg cells were plated on HNO3 washed coverslips coated with 1:20000 poly-d-lysine (incubated for 20 min, washed with PBS 2x and media 1x) for 2 hours. They were induced with 5 μg/mL DOX for 24 hours before recording. A2R cells were plated on 1:60000 poly-d-lysine for 2 hours and induced with 7.5 μg/mL DOX for 30 hours before recording. The cells were lifted from the coverslip after whole cell configuration was achieved and brought in front of the theta tubing. […] Recording was done using a single channel of a Multiclamp700B Amplifier (Axon Instruments) operated by pClamp10 software. Signals were digitized using Digidata1440A (Axon Instruments) at a sampling rate of 50 kHz and low pass filtered at 2kHz. Borosilicate glass capillaries (O.D. 1.5 mm, I.D. 0.86 mm, Sutter) were pulled to manufacture electrodes with pipette resistances of 3.5–5 MΩ.
Standard solution without ligand was the external solution. The ligand solution contained 1mM glutamate in external solution, supplemented with 2mM glucose and 3mM NaCl to facilitate visualizing the interface of the two solutions and recording liquid junction potential after breaking the patch. The 10–90% rise time of liquid junction potential was around 300μsec. VU0627849 was dissolved in external solution containing 1 mM glutamate to a final concentration of 40 μM. Tips of the tubing for each solution were positioned immediately before the opening of one compartment of the theta tubing. Drug-containing and drug-free glutamate solutions were switched using a manual valve located between the solution reservoir and theta glass tube. Solution speed was adjusted by the height of the reservoir using gravity.
We have conducted a preliminary electrophysiological investigation of the compound VU0627849. Using a fast ligand application system, A2R and A2R-stg cells were stimulated with 1mM glutamate using a 100 ms pulse followed by a 50 ms interval and a second 20 ms pulse to evaluate recovery from desensitization (Fig 10A and 10B red traces). […] These effects are drug specific because wash out of VU0627849 restored the original current (Fig 10B, black trace). We also see a small effect on A2R cells that was not seen in the VSD assay (Fig 10A blue trace). VU0627849 acted as a PAM on A2R-stg cells, corroborating our HTS data from the VSD assay.

GluA2flip(R) (A2R cells) = biological target: T6, GluA2flip(R) (A2R cells) (Homo sapiens, UniProt P42262, Q607R); assay: Whole-cell electrophysiology with fast ligand application, A2R cells; format: cell-based; details: 40 μM compound
T6 construct: expressed in transfected cells
T6 sequence (P42262 25-883 isoform P42262-2 Q607R limits assumed): as the sequence (P42262 25-883 isoform P42262-2 limits assumed) above, with Q583R counted along it
Method: as §2
Standard solution without ligand was the external solution. The ligand solution contained 1mM glutamate in external solution, supplemented with 2mM glucose and 3mM NaCl to facilitate visualizing the interface of the two solutions and recording liquid junction potential after breaking the patch. The 10–90% rise time of liquid junction potential was around 300μsec. VU0627849 was dissolved in external solution containing 1 mM glutamate to a final concentration of 40 μM. […]

GluA2flip(R)-stargazin (A2R-stg TetON HEK293 cells), sequence (P42262 25-883 isoform P42262-2 Q607R limits assumed): as the sequence (P42262 25-883 isoform P42262-2 limits assumed) above, with Q583R counted along it
GluA2flip(R)-stargazin (A2R-stg TetON HEK293 cells), sequence (Q9Y698 whole entry partner): as the sequence (Q71RJ2 whole entry partner) above, with V257I, D306E, S307N, A313S counted along it

| Compound | EC50 [1] [µM] | PAM/NAM activity in VSD assay, A2R-stg [1] | PAM/NAM activity in calcium flux CRC assay, A2Q-GSG [2] | PAM/NAM activity in calcium flux CRC assay, A2Q (GluA2flip(Q) (A2Q cells)) | PAM/NAM activity in calcium flux CRC assay, A2Q-stg [3] | IC50 [4] [µM] | PAM/NAM activity in VSD assay, A2R-C3 [4] | PAM/NAM categorisation in glutamate potency fold-shift assay, A2Q-C3 [5] | PAM/NAM activity in calcium flux CRC assay, A2Q-C3 [6] | PAM/NAM categorisation in glutamate potency fold-shift assay, A2Q-stg [7] | concentration at which PAM/NAM activity is evident in raw VSD traces, A2R-stg [1] | concentration at which PAM/NAM activity is evident in raw VSD traces, A2R-C3 [4] | also measured |
| --- | --- | --- | --- | --- | --- | --- | --- | --- | --- | --- | --- | --- | --- |
| COc1ccccc1CC(=O)NC1(c2nc(-c3ccsc3)no2)CCCCC1 [VU0539491] | 4.2 | PAM | PAM | Slight NAM activity | Slight NAM activity | 3.2 | NAM | NAM | slight decrease in signal | NAM | – | – | – |
| CCCc1c(C(=O)NC2CCCCC2)nnn1-c1ccccc1 [VU0612951] | – | NAM | – | – | negative trend | 0.87 | NAM | right-shifts | – | right-shifts | submicromolar | higher than 1 μM | IC50 [1]: 1.5 µM; decrease in %max GLUslope across the CRC, A2R-stg ([1]; VSD CRC 40 μM to 10 nM): ~ 40%; decrease in %max GLUslope across the CRC, A2R-C3 ([4]; VSD CRC 40 μM to 10 nM): ~ 40% |
| O=C(Cc1cc(-c2ccc3c(c2)OCCO3)on1)NCc1ccccc1 [VU0627849] | 0.86 | PAM | PAM | PAM | PAM | – | PAM | – | PAM | – | ≥ 2.5 µM | ≥ 2.5 µM | Activity on A2R cells in counter-screens [8]: did not show any activity; PAM/NAM activity in electrophysiology, A2R-stg [9]: PAM; change in peak amplitude ([9]; 1 mM glutamate 100 ms pulse, preliminary): no change; amplitude in the second pulse of glutamate ([9]; second 20 ms pulse after 50 ms interval, preliminary): increased amplitude; resensitization ([9]; within 10 ms following initial activation and desensitization, preliminary): delayed increase in resensitization; EC50 [2]: 24.9 µM; positive change in %max GLUslope, A2Q-GSG ([2]; across calcium flux CRC): > 80%; EC50 (GluA2flip(Q) (A2Q cells); CRC from GLUslope1, 1 mM glutamate, PAM, read-out: EC50 Ca2+ Sensing, A2Q): 14.1 µM; positive change in %max GLUslope, A2Q (GluA2flip(Q) (A2Q cells); across calcium flux CRC): > 80%; increase in response of A2Q-stg cells ([3]; 7.5 and 30 μM compound): ~ 300 arbitrary fluorescence units (AFU); EC50 [4]: 0.85 µM; effect on A2R cells in electrophysiology (GluA2flip(R) (A2R cells)): small effect; EC50 [6]: 3.1 µM; positive change in %max GLUslope, A2Q-C3 ([6]; across calcium flux CRC): > 80% |
